Source: ChEMBL document CHEMBL1201862, “PubChem BioAssay data set” (2004)
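Exposure lasted 48 hours, with cells grown in 96-well plates and compounds tested at five concentrations. Here, GI50 denotes the concentration required for 50% inhibition of growth.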 Active and inactive are the calls of the source. Cut-off read from the data, not from the text of the source: active = GI50 up to about 1.1 µM and inactive = higher.

What was measured:
Assay in all cases: growth of human tumour cells (NCI), 48 h
UACC-62 = tested on: UACC-62
K562 = tested on: K562
NCI-H460 = tested on: NCI-H460
786-0 = tested on: 786-0
A549 = tested on: A549
SK-MEL-5 = tested on: SK-MEL-5
SF-539 = tested on: SF-539
UACC-257 = tested on: UACC-257
U-251 = tested on: U-251
OVCAR-8 = tested on: OVCAR-8
M14 = tested on: M14
HOP-92 = tested on: HOP-92
EKVX = tested on: EKVX
NCI-H23 = tested on: NCI-H23
LOX IMVI = tested on: LOX IMVI
SNB-78 = tested on: SNB-78
COLO 205 = tested on: COLO 205
KM12 = tested on: KM12

Measured: GI50

CCCCCCCSCC1C(=O)C23C(O)C1CCC2C12COC3(O)C(O)C1C(C)(C)CCC2O (centres undefined)
inactive: UACC-62 11.5 µM | K562 3.98 µM | NCI-H460 15.1 µM | 786-0 13.8 µM | A549 18.7 µM | SK-MEL-5 12.1 µM | SF-539 13.2 µM | UACC-257 7.16 µM | U-251 10.7 µM | OVCAR-8 16.4 µM | M14 12.2 µM | HOP-92 13.9 µM | EKVX 17.7 µM | NCI-H23 16.3 µM | LOX IMVI 13.3 µM | SNB-78 15.3 µM | COLO 205 4.16 µM | KM12 10.6 µM

COC(=O)C12C34C=CC5(CCC6(C=CC1(CC3)O6)C52C(=O)OC)O4 (centres undefined)
inactive: K562 > 100 µM | NCI-H460 > 100 µM | 786-0 > 100 µM | A549 > 100 µM | SF-539 > 100 µM | UACC-257 > 100 µM | U-251 > 100 µM | OVCAR-8 > 100 µM | HOP-92 > 100 µM | EKVX > 100 µM | NCI-H23 > 100 µM | LOX IMVI > 100 µM | SNB-78 > 100 µM | COLO 205 > 100 µM | KM12 > 100 µM

C/C(=N/NC(=O)C(N)=O)C(CC(C(=O)Nc1ccccc1C)/C(C)=N\NC(=O)C(N)=O)C(=O)Nc1ccccc1C (centres undefined)
inactive: K562 > 100 µM | NCI-H460 > 100 µM | 786-0 > 100 µM | A549 > 100 µM | SK-MEL-5 > 100 µM | SF-539 > 100 µM | UACC-257 > 100 µM | U-251 > 100 µM | OVCAR-8 > 100 µM | M14 > 100 µM | HOP-92 47.1 µM | EKVX > 100 µM | NCI-H23 > 100 µM | LOX IMVI > 100 µM | SNB-78 > 100 µM | COLO 205 > 100 µM | KM12 > 100 µM

CCCC/C=C1\CCC(C)(CN(C)C)C1=O (centres undefined)
inactive: UACC-62 > 100 µM | K562 > 100 µM | NCI-H460 > 100 µM | 786-0 > 100 µM | A549 > 100 µM | SK-MEL-5 > 100 µM | SF-539 > 100 µM | UACC-257 > 100 µM | U-251 > 100 µM | OVCAR-8 > 100 µM | M14 > 100 µM | HOP-92 > 100 µM | EKVX > 100 µM | NCI-H23 > 100 µM | SNB-78 > 100 µM | KM12 > 100 µM

CCOc1ccc(NC(=O)CCc2nnc(SC)o2)cc1
inactive: UACC-62 > 100 µM | K562 > 100 µM | NCI-H460 > 100 µM | 786-0 > 100 µM | A549 > 100 µM | SK-MEL-5 > 100 µM | SF-539 > 100 µM | UACC-257 > 100 µM | U-251 > 100 µM | OVCAR-8 > 100 µM | M14 > 100 µM | HOP-92 82 µM | EKVX > 100 µM | NCI-H23 > 100 µM | LOX IMVI > 100 µM | SNB-78 > 100 µM | COLO 205 > 100 µM | KM12 > 100 µM

C=CCCCCCCCCCCCC1CCC(CC)N1 (centres undefined)
inactive: UACC-62 14.2 µM | K562 4.7 µM | NCI-H460 17.7 µM | 786-0 9.1 µM | A549 10.3 µM | SK-MEL-5 10.2 µM | SF-539 10.6 µM | UACC-257 13.9 µM | U-251 10.9 µM | M14 12.1 µM | EKVX 15.5 µM | NCI-H23 14.4 µM | LOX IMVI 9.66 µM | SNB-78 14.9 µM | COLO 205 3.37 µM | KM12 3.87 µM

Cc1c(C)c2cc3c(=O)ccoc3c(C)c2oc1=O
inactive: UACC-62 21.9 µM | K562 > 100 µM | NCI-H460 > 100 µM | 786-0 > 100 µM | A549 > 100 µM | SK-MEL-5 > 100 µM | SF-539 85.5 µM | UACC-257 > 100 µM | U-251 > 100 µM | OVCAR-8 > 100 µM | M14 > 100 µM | EKVX > 100 µM | NCI-H23 > 100 µM | LOX IMVI 54 µM | SNB-78 > 100 µM | COLO 205 47 µM | KM12 > 100 µM

CCCCCCCCCCCCCCCCOC(=O)c1cc(O)cc(C(=O)OCCCCCCCCCCCCCCCC)c1
inactive: UACC-62 > 100 µM | K562 > 100 µM | NCI-H460 > 100 µM | 786-0 > 100 µM | A549 > 100 µM | SK-MEL-5 > 100 µM | UACC-257 > 100 µM | U-251 > 100 µM | OVCAR-8 > 100 µM | M14 > 100 µM | HOP-92 > 100 µM | EKVX > 100 µM | NCI-H23 > 100 µM | LOX IMVI > 100 µM | SNB-78 > 100 µM | COLO 205 > 100 µM | KM12 > 100 µM
